# Tests used:
# [1] = test system: BACE1 mRNA; assay: BACE1 mRNA in brain of Alzheimer's dementia animal model (real-time PCR); format: in vivo; conditions: 3×Tg-AD mouse, 25 mg/kg orally every day for 4 weeks
# Protocol: (§1) As an Alzheimer's dementia animal model, 3×Tg-AD mice were used. The 3×Tg-AD mouse is a mouse having overexpressed presenilin, amyloid precursor protein (APP), and Tau genes, which are frequently found in Alzheimer's dementia. The 3×Tg-AD mouse is an animal model that is widely used for research on Alzheimer's dementia (Oddo S. et al, 2003, Neuron, 39, 409-421). 25 mg/kg of chlorhexidine was orally administered every day for 4 weeks; and 0.1 mg/kg and 0.5 mg/kg of thioguanosine were orally administered every day for 8 weeks to 6-month old 3×Tg-AD mice. A Morris water maze test was used to evaluate the effects of chlorhexidine and thioguanosine administration on the mice.
# (§2) From the 3×Tg-AD mouse to which chlorhexidine was administered in Example 4a brain was extracted. The extracted brain was lysed using a tissue lysis buffer and RNA was extracted using Trizol. The amount of BACE1 expression was determined by Western blot and real-time PCR. FIGS. 18 and 19 show the results.
# [2] = Body weights and weights of organs (potential toxicity); conditions: mouse, in vivo, po, 25 mg/kg
# Protocol: as §1
# In order to evaluate potential toxicity of chorhexidine, the body weights and weights of organs were measured for treatment and vehicle subjects.
# [3] = test system: BACE1 proteins; assay: BACE1 protein expression under oxidative stress (HNE) conditions of brain nerve cells (Western blot); format: cell-based, human; conditions: SH-SY5Y cells pretreated 24 hours at 1, 5 and 10 μM, then HNE
# Protocol: In order to determine an influence of chlorhexidine and thioguanosine of the present disclosure on an amount of BACE1 expression under oxidative stress conditions of brain nerve cells, the following experiment was performed. Brain nerve cells, SH-SY5Y cells, were pretreated with chlorhexidine and thioguanosine at 1 μM, 5 μM, and 10 μM for 24 hours. Then, an oxidative stress substance HNE (4-hydroxynonenal) was applied to the SH-SY5Y cells, and a change in the amount of BACE1 proteins was determined by Western blot. A change in an amount of BACE1 mRNA was determined by real-time PCR.
# [4] = test system: Aβ; assay: Generation of Aβ in brain cortex, immuno staining; format: in vivo; conditions: 3×Tg-AD mouse, 25 mg/kg orally every day for 4 weeks
# Protocol: as §1
# (§3) From the 3×Tg-AD mouse to which chlorhexidine was administered in Example 4a brain was extracted. A […] frozen section was prepared from the extracted brain using a microtome. Then, generation of Aβ was measured using immuno staining or a human amyloid 13 (1-40) assay kit (IBL) and a human amyloid β (1-42) assay kit (IBL). FIGS. 20 and 21 show the results.
# [5] = test system: 3×Tg-AD mice; assay: Morris water maze test, learning ability, Alzheimer's dementia animal model; format: in vivo, mouse; conditions: 25 mg/kg orally every day for 4 weeks, on the third and fourth days
# Protocol: as §1, with “the mice. […] In this configuration, a treated or control subject was placed into the water with its head towards a water tank wall surface, and a time was recorded for the length of time taken for finding the escape platform. […] After 15 minutes, the mouse was placed into the water again, a subsequent time taken for finding the escape platform was recorded, and a change in the learning ability was determined. This procedure was performed over four days, and the result of change in learning ability was measured. […]” for “the mice.”
# [6] = test system: BACE1 proteins; assay: Amount of expression of BACE1 proteins in brain nerve cells (Western blot); format: cell-based, human; conditions: SH-SY5Y cells, treated 24 hours at 0.625, 1.25, 2.5, 5 and 10 μM, actin control
# Protocol: As brain nerve cells, human neuroblastoma cells SH-SY5Y were used. […] The SH-SY5Y cells were plated at 5×10^5 cells/well into a 6-well plate. […] Then, the amount of expression of BACE1 proteins was determined by Western blot. Actin was used throughout as a control.
# [7] = test system: Aβ40 and Aβ42; assay: Generation of Aβ40 and Aβ42 in brain, human amyloid β assay kits (ELISA); format: in vivo; conditions: 3×Tg-AD mouse brain, 25 mg/kg orally every day for 4 weeks
# Protocol: as §1, §3
# [8] = test system: BACE1 proteins; assay: BACE1 protein expression in brain of Alzheimer's dementia animal model (Western blot); format: in vivo; conditions: 3×Tg-AD mouse, 25 mg/kg orally every day for 4 weeks
# Protocol: as §1, §2
# [9] = test system: APP CTFs (C83 and C99); assay: Generation of APP CTFs (C83 and C99) under oxidative stress conditions of brain nerve cells (Western blot); format: cell-based, human; conditions: SH-SY5Y cells pretreated 24 hours at 5 and 10 μM, then HNE
# Protocol: In order to determine an influence of chlorhexidine and thioguanosine of the present disclosure on APP CTFs under oxidative stress conditions of brain nerve cells, the following experiment was performed. Brain nerve cells, SH-SY5Y cells, were pretreated with chlorhexidine and thioguanosine at 5 μM and 10 μM for 24 hours. Then, an oxidative stress substance HNE (4-hydroxynonenal) was used as the treatment, and the generation of APP CTFs (C83 and C99) was determined by Western blot. Under oxidative stress conditions of brain nerve cells treated in accordance with the present disclosure, changes in the generation of APP CTFs are shown in FIGS. 11 and 12.
# [10] = test system: BACE1 promoter; assay: BACE1 promoter activity, BACE1 promoter-luciferase vector, Dual-Luciferase assay; format: cell-based; conditions: Homo sapiens; SH-SY5Y transfected with BACE1 promoter-luciferase vector, 10 μM for 24 hours; read-out: decrease of BACE1 promoter activity
# Protocol: A BACE1 promoter-luciferase vector was transfected to brain nerve cells (SH-SY5Y). […] A change in a BACE1 promoter activity was measured using a Dual-Luciferase assay kit.
structure (smiles),measurement,setting,value
"[H]/N=C(\N/C(=N/[H])NCCCCCCNC(=N)NC(=N)Nc1ccc(Cl)cc1)Nc1ccc(Cl)cc1 [chlorhexidine, N′,N′″″-hexane-1,6-diylbis[N-(4-chlorophenyl)(imidodicarbonimidic diamide)]]",amount of BACE1 mRNA in brain,[1],lower amount of BACE1 mRNA than that of the control group
same,toxicity,[2],no toxicity was determined
same,increase in the amount of expression of BACE1 proteins due to oxidative stress,[3],decreased at 5 μM and 10 μM
same,generation of Aβ in cortex part of brain,[4],lower generation of Aβ than that of the control group
same,learning ability for finding the platform (Morris water maze),[5],faster learning ability for finding the platform than a control group
same,amount of expression of BACE1 proteins,[6],decreased at 5 μM and 10 μM
same,generation of Aβ40,[7],decreased
same,generation of Aβ42,[7],decreased
same,expression of BACE1 proteins in brain,[8],lower expression of BACE1 proteins than that of the control group
same,increase in CTFs due to oxidative stress,[9],decreased at 5 μM and 10 μM
same,inhibition at 10 µM,[10],≥ 50%

# Source: US9549942B2, “Composition for preventing or treating degenerative brain diseases including compound downregulating expression of BACE1 proteins” (RESEARCH & BUSINESS FOUNDATION SUNGKYUNKWAN UNIVERSITY, priority 2013, dated 2017)
